The values that follow come from publication PMC10385824, “Antiproliferative and Tubulin-Destabilising Effects of 3-(Prop-1-en-2-yl)azetidin-2-Ones and Related Compounds in MCF-7 and MDA-MB-231 Breast Cancer Cells” (Pharmaceuticals, 2023).

One may read the share remaining as what is left of the initial amount, in per cent. A lower share remaining goes with a greater loss. As usually defined, the GI50 is the concentration giving 50% growth inhibition.

Each structure is given as a SMILES string. Read-outs that look alike come from different tables or passages of the source.

Data set [1] has as its system MDA-MB-231 human breast cancer cells. The data set can be described thus: Alamar Blue cell viability (antiproliferative) assay. The conditions noted are these: 72 h, eight concentrations 0.001-50 μM, mean ± SEM, read-out: Antiproliferative Activity IC50. The class given is cell-based.
The test system of data set [2] is MCF-7 cells. The data set can be described thus: Lactate dehydrogenase (LDH) cytotoxicity assay. Format: cell-based, human. Conditions: 10 μM, 72 h, LDH release. As to the method: The cytotoxic effects of the compounds were determined using the CytoTox 96 non-radioactive cytotoxicity assay (Promega) as previously reported. The MCF-7 cells were seeded in 96-well plates and incubated for 24 h. Cells were treated with test compounds 16, 26 and 30 at 10 μM concentration as described in the cell viability assay above. At 72 hr, 20 μL of ‘lysis solution (10X)’ was added to the control wells to ensure 100% death. The cells were incubated for a further 1 hr. Supernatant (50 μL) was removed from each well and transferred to a 96-well plate. Cytotox 96R Reagent (50 μL) was added to each well, and the plate was retained in darkness at 20 °C for 30 min. 50 μL of ‘stop solution’ was then added to each well, and the absorbance was determined at 490 nm using a Dynatech MR5000 plate reader. The cell death (%) at 10 μM was determined.
In general terms: LDH leaks from cells whose membrane has failed.

Data set [3] has as its system purified bovine brain tubulin. Put plainly: Tubulin polymerization assay (light scattering, BK006 kit). Format: biochemical. As to the method: Tubulin polymerization was monitored using the BK006 kit obtained from Cytoskeleton Inc. (Denver, CO, USA). The values reported represent the average values determined from two independent assays. Purified bovine brain tubulin (>99%, 3 mg/mL) in buffer containing PIPES (80 mM, pH 6.9), EGTA (0.5 mM), MgCl2 (2 mM), GTP (1 mM) and glycerol (10%) was incubated at 37 °C in vehicle (1% DMSO or EtOH (v/v) in dH2O) or with compounds 9h, 9q, 9s, 10h, 10p, 10r, 11h, 11p, 11r, 17f (all at 10 µM concentration); CA-4 (10 μM) was used as control. In this assay, light scattering is related to the concentration of polymerised microtubules produced. Tubulin assembly was monitored turbidimetrically at 340 nm at 37 °C in a Spectramax 340 PC spectrophotometer (Molecular Devices, Sunnyvale, CA, USA).

The subject of data set [4] is microtubule network in MCF-7 cells. Put plainly: Immunofluorescence confocal microscopy. Format: cell-based, human. The conditions noted are these: 16 h. How it is done:
CA-4 and β-lactam 9q depolymerise the microtubule network in MCF-7 cells. […] After 16 h, the cells were fixed in 4% paraformaldehyde and stained with mouse monoclonal anti-α-tubulin−FITC antibody (clone DM1A) (green), Alexa Fluor 488 dye, and counterstained with DAPI (blue). The confocal images were obtained by Leica SP8 confocal microscopy with Leica application suite X software. Representative confocal micrograph images of three separate experiments are shown above [scale bar: […]].
The effects of β-lactam 9q on MCF-7 cytoskeleton were determined using confocal microscopy as previously described. MCF-7 cells were seeded at 1 × 10^5 cells/mL in glass slides with eight chambers (BD Biosciences, San Jose, CA, USA). […] Following treatment, cells were gently washed in PBS, fixed for 20 min with 4% paraformaldehyde in PBS and permeabilised in 0.5% Triton X-100. The cells were then washed with PBS-T (PBS containing 0.1% Tween), blocked in 5% bovine serum albumin diluted in PBS-T and incubated with mouse monoclonal anti-α-tubulin-FITC antibody (clone DM1A) (Sigma, Milwaulkee, WI, USA) (1:100) for 2 h at 20 °C. The cells were washed again with PBS-T and incubated with Alexa Fluor 488 dye (1:450) for 1 h at 20 °C. Following washes in PBST, the cells were mounted in Ultra Cruz Mounting Media (Santa Cruz Biotechnology, Santa Cruz, CA, USA), which contained 4,6-diamino-2-phenolindol dihydrochloride (DAPI). The immunofluorescence cell images were captured by Leica SP8 confocal microscopy and analysed with Leica application suite X software. Microscopy experiments were performed on three independent occasions, and the images for these experiments were obtained on the same day using identical conditions.

Data set [5] can be described thus: HPLC stability study in phosphate buffers. The class given is physicochemical. Conditions: for remaining at 7 h, 14.6 µg/mL: phosphate buffer, study over 7 h.
The nature of data set [6]: HPLC stability study in plasma. Format: in vitro ADME, human. Conditions: human, buffered plasma (plasma:buffer 1:9); Plasma; study over 7 h. As to the method:
Analytical high-performance liquid chromatography (HPLC) stability studies were performed as follows using Symmetry® column (C18, 5 µm, 4.6 × 150 mm), Waters 2487 Dual Wavelength Absorbance detector, Waters 1525 binary HPLC pump and Waters 717 plus Autosampler (Waters Corporation, Milford, MA, USA) with detection at 254 nm as previously described. Samples were analysed using mobile phase acetonitrile (80%): water (20%), flow rate (1 mL/min) over 10 min. […] First, 30 µL of compound stock solution was diluted with appropriate buffer (1 mL); sample was shaken and injected immediately. Samples were withdrawn and analysed at the following time points: t = 0 min, 5 min, 30 min, 60 min, 90 min, 120 min, 24 h and 48 h. (ii) Thermal stability: Compound stock solution (1 mL) was placed in a glass vial on a heating block for 4 h at 60 °C. The sample was then cooled, diluted (acetonitrile) and analysed. (ii) Oxidising conditions: H2O2 (3%, 0.2 mL) was added to compound stock solution (0.8 mL). The vial was vortexed and retained at 20 °C, and the sample was analysed at 60, 120 180 and 240 min. (iv) Acidic conditions: HCl (0.1 M, 0.2 mL) was added to stock solutions (0.8 mL). The vial was mixed by vortex and retained at 20 °C. A sample was neutralised with NaOH (0.1 M, 0.2 mL) at 60, 120, 180 and 240 min, followed by HPLC analysis. (v) Alkaline conditions: NaOH (0.1 M, 0.2 mL) was added to stock solution (0.8 mL) of the compound in a vial. The vial was mixed by vortex and retained at 20 °C. A sample was neutralised with HCl (0.1 M, 0.2 mL) at 60, 120, 180 and 240 min followed by HPLC analysis. (vi) Photostability study: Compounds (stock solution, 1 mL) were placed in a vial, exposed to UV light for 4 h and then analysed by HPLC as above. Stability studies in plasma: Approval for this study was obtained from the School of Pharmacy and Pharmaceutical Sciences Trinity College Dublin Research Ethics Committee (2020–06-01-MS). Following informed consent, blood was withdrawn from healthy volunteers, and plasma was obtained by centrifugation and kept at −20 °C until further use. […] A sample (250 µL) was then added to the Eppendorf tube containing ZnSO4.7H2O solution (500 µL) (2% w/v ZnSO4 solution in acetonitrile:water, 1:1). The samples were centrifuged (10,000 rpm, 3 min), filtered (0.2 micron filter) and analysed by HPLC as above. Further samples were taken at one-hour intervals.

For data set [7], the system named is MCF-7 human breast cancer cells. The data set can be described thus: cells.
Description: All biochemical assays were performed in triplicate for the determination of mean values reported. The human breast carcinoma cell line MCF-7 was purchased from the European Collection of Animal Cell Cultures (ECACC) and was cultured in Eagle’s minimum essential medium with 10% fetal bovine serum, 2 mM L-glutamine and 100 μg/mL penicillin/streptomycin. The medium was supplemented with 1% non-essential amino acids. […] All cells were sub-cultured 3 times/week by trypsinisation.
Cells were seeded at a density of 5 × 10^3 cells/well (MCF-7) in triplicate in 96-well plates. […] Cell proliferation for MCF-7 and MDA-MB-231 cells was analysed using the Alamar Blue assay (Invitrogen Corp.). […] Experiments were performed in triplicate on at least three separate occasions.
Data set [8] relates to MCF-7 cells. Put plainly: Annexin-V/PI apoptosis assay.
Description: Flow cytometry using annexin-V and propidium iodide (PI) was used to detect apoptotic cell death in MCF-7 cells. […] Cells were then incubated on ice in darkness for 30 min in annexin-V-containing binding buffer [1:100]. Cells were washed once in binding buffer and then re-suspended in propidium iodide containing binding buffer [1:1000]. Cells were analysed directly using the BD Accuri flow cytometer and Prism software. Four cell populations are produced in this assay: annexin-V- and PI-negative (Q4, healthy cells), annexin-V-positive and PI-negative (Q3, early apoptosis), annexin-V- and PI-positive (Q2, late apoptosis) and annexin-V-negative and PI-positive (Q1, necrosis). CA-4 (50 nM) was used as the positive control for apoptosis.
Cells were then collected and processed for analysis.
Data set [9] relates to NCI 60 human cancer cell line panel. Put plainly: NCI 60 cell line screen (SRB), panel values. The conditions noted are these: Homo sapiens, 60 cell.
Data set [10] relates to colchicine-binding site of β-tubulin (Cys239, Cys354) in MCF-7 cells. Put plainly: Colchicine-binding site assay (EBI crosslinking, Western blot). Conditions: 10 μM, 2 h, then EBI. For orientation: A western blot detects proteins with antibodies after separation by electrophoresis.
Description: MCF-7 cells were seeded at density of 5 × 10^4 cells/well in 6-well plates and incubated overnight. […] Samples were separated by SDS-PAGE, transferred to polyvinylidene difluoride membranes and examined with β-tubulin antibodies (Sigma-Aldrich, Milwaulkee, WI, USA) [99].
Cells were harvested, lysed and then analysed using sedimentation followed by Western blotting to identify β-tubulin and β-tubulin-EBI adduct.

As for `COc1ccc(/C=C\c2cc(OC)c(OC)c(OC)c2)cc1O` [CA-4, Combretastatin A-4, reference compound], the IC50 worked out at 43 nM in data set [1]; 3 nM in [7] (MCF7, 72 h, MCF-7, Figure 2, 72 h); 3.9 nM in [7] (MCF7, 72 h, read-out: Antiproliferative Activity IC50, MCF-7, 72 h, eight concentrations 1–50 μM, mean ± SEM, Table 2); 3.9 ± 0.32 nM in data set [7] (MCF7, 72 h, read-out: Antiproliferative Activity IC50, MCF-7, 72 h, eight concentrations (0.001–50 mM [sic]), mean ± SEM, Table 5); 3.9 nM in data set [7] (MCF7, MCF-7); 3.9 ± 0.32 nM in data set [7] (MCF7, read-out: Antiproliferative Activity IC50, MCF-7, eight concentrations 0.001–50 μM, mean ± SEM, Table 3). The IC50 in data set [7] (MCF7, read-out: Antiproliferative Activity IC50, MCF-7, eight concentrations 0.001–50 μM, mean ± SEM, Table 4) was 3.9 ± 0.32 nM. Besides, in [2], the cell death worked out at 12%. Moreover, the “Fold Reduction in Vmax” value in data set [3] stood at 6.3. In data set [3] (compound at 10 μM, 37 °C, 340 nm), the Vmax amounted to 0.0022 mOD/min. For the same molecule, the “effect on microtubule network” value in data set [4] is “microtubule formation was inhibited and resulted in depolymerised microtubules”. The time stable result in [5] (pH 4.0, 7.4 and 9.0 and human plasma) is recorded as “more than 7 h”. For the same molecule, the values for the share remaining at 7 h, 14.6 µg/mL in [5] (pH 4.0), in [5] (pH 7.4) and in [5] (pH 9.0) were 97%, 89% and 90%, respectively. The molecule further yielded a share remaining at 7 h, 41.3 µg/mL in data set [6] of 95%. For the same molecule, in data set [8] (50 nM, 72 h), the “cells undergoing apoptosis (early+late)” value worked out at 34.6%. Also, in data set [8] (Homo sapiens, MCF7, 72 h, read-out: Viable), the viability at 0.05 µM came to 61.8%. Besides, the concentration for 50% growth inhibition (GI50) in data set [9] (read-out: Mean GI50, mean over all NCI 60 cell lines) was 99.3 nM. Besides, the IC (TGI (total growth inhibition)) in [9] (read-out: Mean TGI) was determined as 10300 nM. Further, the “formation of β-tubulin-EBI adduct” value in [10] is recorded as “formation of the EBI adduct was prevented”.
